How the values were obtained:
CD34^+CD38^− cells = assay: Expansion of CD34+CD38- cells using human cord blood-derived CD34+ cells (Assay Example 1); assay type: cell-based; details: for Expansion efficiency (CD34^+CD38^− cells): 100 ng/mL SCF, 7 days, based on the number of CD34^+CD38^− cells in the absence of compound; for Comparison with TPO: CD34^+CD38^− cells
Procedure: (§1) Human cord blood-derived CD34^+ cells were purchased from Lonza and plated on a 24-well plate (Corning) (10000 cells/1 mL/well). As the culture medium, StemSpan SFEM (StemCell Technologies) containing 100 ng/mL SCF (Wako Pure Chemical Industries) was used, and one of Compounds No. 1 to 72 dissolved in dimethyl sulfoxide was added in an amount of 0.1% (v/v) to a final concentration of 1 or 3 μg/mL. As a positive control, TPO (PeproTech) was used at a final concentration of 10 ng/mL.
(§2) After the cells were incubated in liquid culture at 37° C. for 7 days in a CO2 incubator (5% CO2), the number of viable cells was counted by trypan blue assay. The number of CD34^+CD38^− cells was calculated as follows. After the incubation, the cells in the liquid culture was stained with a CD34 antibody (APC, Becton, Dickinson and Company) and a CD38 antibody (PE, Becton, Dickinson and Company), then washed with PBS(−) containing 2% (v/v) FBS and stained with propidium iodide (Sigma-Aldrich Japan) added to a final concentration of 5 μg/mL. The stained cells were analyzed with a BD FACSCANTO™ II flow cytometer (Becton, Dickinson and Company) to determined the proportions of CD34^+ cells and CD34^+CD38^− cells, which was multiplied by the number of viable cells to calculate the numbers of CD34^+ cells and CD34^+CD38^− cells.
(§3) The expansion efficiencies in the presence of 1 or 3 μg/mL of compounds based on the number of CD34^+ cells in the absence of them are shown in Tables 3-1 and 3-2 on a scale of A for expansion efficiencies of 6 or greater, B for expansion efficiencies of at least 4 and less than 6, and C for expansion efficiencies of at least 2 and less than 4. The expansion efficiencies in the presence of 1 or 3 μg/mL of compounds based on the number of CD34^+CD38^− cells in the absence of them are shown in Tables 4-1 and 4-2 on a scale of A for expansion efficiencies of 10 or greater, B for expansion efficiencies of at least 5 and less than 10, and C for expansion efficiencies of at least 3 and less than 5. Further, in Table 3, the compounds with an expansion efficiency twice or more greater than that of TPO are marked with O.

CD34^+ cells = assay: Expansion of CD34+ cells using human cord blood-derived CD34+ cells (Assay Example 1); assay type: cell-based; details: 100 ng/mL SCF, 7 days, based on the number of CD34^+ cells in the absence of compound
Procedure: as §1, §2, §3

[1] = 3 μg/mL compound vs TPO 10 ng/mL

Compound	Expansion efficiency (CD34^+CD38^− cells) (CD34^+CD38^− cells; 3 μg/mL compound)	Expansion efficiency (CD34^+ cells) (CD34^+ cells; 3 μg/mL compound)	Expansion efficiency (CD34^+CD38^− cells) (CD34^+CD38^− cells; 1 μg/mL compound)	Expansion efficiency (CD34^+ cells) (CD34^+ cells; 1 μg/mL compound)	Comparison with TPO (CD34^+CD38^− cells; [1])	Comparison with TPO (CD34^+CD38^− cells; 1 μg/mL compound vs TPO 10 ng/mL)
CC(=NNC(=O)c1ccc(C(=O)NCc2ccc(CC(N)=O)cc2)s1)c1csc(-c2ccc(C(F)(F)F)cc2)c1O [compound 69]	A (A for expansion efficiencies of 10 or greater)	A (A for expansion efficiencies of 6 or greater)				
CC(=O)NCc1ccc(CNC(=O)c2ccc(C(=O)NN=C(C)c3csc(-c4ccc(C(F)(F)F)cc4)c3O)s2)cc1 [compound 55]			A (A for expansion efficiencies of 10 or greater)	A (A for expansion efficiencies of 6 or greater)		
CC(=NNC(=O)c1ccc(C(=O)NCc2ccc(C(=O)NCCN3CCOCC3)cc2)s1)c1csc(-c2ccc(Br)cc2)c1O [compound 21]	A (A for expansion efficiencies of 10 or greater)	A (A for expansion efficiencies of 6 or greater)			∘	
CC(=NNC(=O)c1ccc(C(=O)NCc2ccc(CC(N)=O)cc2)s1)c1csc(-c2ccc(C(C)(C)C)cc2)c1O [compound 67]			A (A for expansion efficiencies of 10 or greater)	B (B for expansion efficiencies of at least 4 and less than 6)		∘
CC(=NNC(=O)c1ccc(C(=O)NCc2ccc(CC(N)=O)cc2)s1)c1csc(-c2ccc(Cl)c(Cl)c2)c1O [compound 66]	A (A for expansion efficiencies of 10 or greater)	C (C for expansion efficiencies of at least 2 and less than 4)				
CC(=O)NCc1ccc(CNC(=O)c2ccc(C(=O)NN=C(C)c3csc(-c4ccc(Cl)c(Cl)c4)c3O)s2)cc1 [compound 52]			A (A for expansion efficiencies of 10 or greater)	A (A for expansion efficiencies of 6 or greater)		
CC(=NNC(=O)c1ccc(C(=O)NCc2ccc(S(=O)(=O)NCCOCCO)cc2)s1)c1csc(-c2ccc(C(C)(C)C)cc2)c1O [compound 2]	A (A for expansion efficiencies of 10 or greater)	B (B for expansion efficiencies of at least 4 and less than 6)				
CC(=O)NCc1ccc(CNC(=O)c2ccc(C(=O)NN=C(C)c3csc(-c4ccc(Cl)cc4)c3O)s2)cc1 [compound 56]			A (A for expansion efficiencies of 10 or greater)	A (A for expansion efficiencies of 6 or greater)		
CC(=NNC(=O)c1ccc(C(=O)NCc2ccc(C(=O)NCCO)cc2)s1)c1csc(-c2ccc(Br)cc2)c1O [compound 15]	A (A for expansion efficiencies of 10 or greater)	A (A for expansion efficiencies of 6 or greater)			∘	
CC(=O)NCc1ccc(CNC(=O)c2ccc(C(=O)NN=C(C)c3csc(-c4ccc(Br)cc4)c3O)s2)cc1 [compound 54]			A (A for expansion efficiencies of 10 or greater)	A (A for expansion efficiencies of 6 or greater)		
CC(=NNC(=O)c1ccc(C(=O)NCc2ccc(C(=O)NCCOCCO)cc2)s1)c1csc(-c2ccc(Cl)cc2)c1O [compound 63]	A (A for expansion efficiencies of 10 or greater)	A (A for expansion efficiencies of 6 or greater)			∘	
CC(=NNC(=O)c1ccc(C(=O)NCc2ccc(C(=O)NCCN(CCO)CCO)cc2)s1)c1csc(-c2ccc(Cl)c(Cl)c2)c1O [compound 22]	A (A for expansion efficiencies of 10 or greater)	A (A for expansion efficiencies of 6 or greater)			∘	
CC(=NNC(=O)c1ccc(C(=O)NCc2ccc(CC(N)=O)cc2)s1)c1csc(-c2ccc(OC(F)(F)F)cc2)c1O [compound 71]	A (A for expansion efficiencies of 10 or greater)	A (A for expansion efficiencies of 6 or greater)				
CC(=NNC(=O)c1ccc(C(=O)NCc2ccc(C(=O)NCCN3CCNCC3)cc2)s1)c1csc(-c2ccc(Cl)c(Cl)c2)c1O [compound 28]	A (A for expansion efficiencies of 10 or greater)	B (B for expansion efficiencies of at least 4 and less than 6)				
CCCCOCCOCCNC(=O)c1ccc(CNC(=O)c2ccc(C(=O)NN=C(C)c3csc(-c4ccc(C(C)(C)C)cc4)c3O)s2)cc1 [compound 35]	B (B for expansion efficiencies of at least 5 and less than 10)	C (C for expansion efficiencies of at least 2 and less than 4)				
CC(=NNC(=O)c1ccc(C(=O)NCc2ccc(C(=O)NCCOCCO)cc2)cc1)c1csc(-c2ccc(C(C)(C)C)cc2)c1O [compound 44]	A (A for expansion efficiencies of 10 or greater)	C (C for expansion efficiencies of at least 2 and less than 4)				
CC(=NNC(=O)c1ccc(C(=O)NCc2ccc(C(=O)NCCO)cc2)s1)c1csc(-c2ccc(Cl)c(Cl)c2)c1O [compound 13]	A (A for expansion efficiencies of 10 or greater)	A (A for expansion efficiencies of 6 or greater)			∘	
CC(=NNC(=O)c1ccc(C(=O)NCc2ccc(C(=O)NCC3CCCO3)cc2)s1)c1csc(-c2ccc(Br)cc2)c1O (stereo not drawn) [compound 12]	A (A for expansion efficiencies of 10 or greater)	A (A for expansion efficiencies of 6 or greater)				
CC(=NNC(=O)c1ccc(C(=O)NCc2ccc(C(=O)NCCN3CCOCC3)cc2)s1)c1csc(-c2ccc(Cl)c(Cl)c2)c1O [compound 19]	A (A for expansion efficiencies of 10 or greater)	C (C for expansion efficiencies of at least 2 and less than 4)				
CC(=NNC(=O)c1ccc(C(=O)NCc2ccc(C(=O)NCC3CCCO3)cc2)s1)c1csc(-c2ccc(C(C)(C)C)cc2)c1O (stereo not drawn) [compound 11]	A (A for expansion efficiencies of 10 or greater)	A (A for expansion efficiencies of 6 or greater)				
COc1ccc(-c2scc(C(C)=NNC(=O)c3ccc(C(=O)NCc4ccc(CC(N)=O)cc4)s3)c2O)cc1 [compound 72]	B (B for expansion efficiencies of at least 5 and less than 10)	B (B for expansion efficiencies of at least 4 and less than 6)				
CC(=NNC(=O)c1ccc(C(=O)NCc2ccc(C(=O)NCc3ccccn3)cc2)s1)c1csc(-c2ccc(Cl)c(Cl)c2)c1O [compound 4]	B (B for expansion efficiencies of at least 5 and less than 10)	C (C for expansion efficiencies of at least 2 and less than 4)				
COc1ccc(-c2scc(C(C)=NNC(=O)c3ccc(C(=O)NCc4ccc(C(=O)NCCOCCO)cc4)s3)c2O)cc1 [compound 65]	B (B for expansion efficiencies of at least 5 and less than 10)	C (C for expansion efficiencies of at least 2 and less than 4)				
CC(=O)NCc1ccc(CNC(=O)c2ccc(C(=O)NN=C(C)c3csc(-c4ccc(C(C)(C)C)cc4)c3O)s2)cc1 [compound 53]			B (B for expansion efficiencies of at least 5 and less than 10)	C (C for expansion efficiencies of at least 2 and less than 4)		

Source: patent publication US9328085B2, “Heterocyclic compounds and expansion agents for hematopoietic stem cells” (NISSAN CHEMICAL INDUSTRIES, LTD., priority 2009, dated 2016)
